From patent US4656166A, “Antibiotic compounds derived from cephalosporins, process for their production and pharmaceutical compositions” (Sanofi, priority 1983, dated 1987)
Converted amounts (≈) assume the structure as drawn.

Experiments:
Assay type in all cases: cell-based
[1] = tested on: Klebsiella RO 30; experiment: MIC, in vitro dilution method, Klebsiella RO 30 (Table III); conditions: RO30; Klebsiella RO 30; dilution method; read-out: MIC
Text: (§1) The products of the invention have been studied as regards their pharmacological properties and, more especially, bacteriostatic action. This has been determined in vitro by the dilution method, and the study was on Gram negative strains.
(§2) Results, expressed in minimum inhibiting concentrations (MIC-- μg/ml), are collected in the following table (Table III).

[2] = tested on: Serratia RL 72; experiment: MIC, in vitro dilution method, Serratia RL 72 (Table III); conditions: RL72
Text: as §1, §2

[3] = tested on: Enterobacter RO 154; experiment: MIC, in vitro dilution method, Enterobacter RO 154 (Table III); conditions: RO154; Enterobacter RO 154; dilution method; read-out: MIC
Text: as §1, §2

[4] = tested on: Escherichia coli SOL 90; experiment: MIC, in vitro dilution method, Escherichia coli SOL 90 (Table III); conditions: SOL90; Escherichia coli SOL 90; dilution method; read-out: MIC
Text: as §1, §2

[5] = tested on: Proteus vulgaris RL 99 bis; experiment: MIC, in vitro dilution method, Proteus vulgaris RL 99 bis (Table III); conditions: RL99BIS; Proteus vulgaris RL 99 bis; dilution method; read-out: MIC
Text: as §1, §2

[6] = tested on: Citrobacter RL 49; experiment: MIC, in vitro dilution method, Citrobacter RL 49 (Table III); conditions: RL49; Citrobacter RL 49; dilution method; read-out: MIC
Text: as §1, §2

[7] = tested on: Pseudomonas RL 112; experiment: MIC, in vitro dilution method, Pseudomonas RL 112 (Table III); conditions: RL112
Text: as §1, §2

CC(C)(N)C(=O)OCC1=C(C(=O)O)N2C(=O)C(NC(=O)/C(=N\OC(C)(C)C(=O)O)c3csc(N)n3)C2[S+]([O-])C1 (centres unmarked) [41 858]
MIC [1]: 0.5 µg/mL (≈ 0.852 µM) | MIC [2]: 4 µg/mL (≈ 6.82 µM) | MIC [3]: 8 µg/mL (≈ 13.6 µM) | MIC [4]: 2 µg/mL (≈ 3.41 µM) | MIC [5]: 0.5 µg/mL (≈ 0.852 µM) | MIC [6]: 1 µg/mL (≈ 1.7 µM) | MIC [7]: 8 µg/mL (≈ 13.6 µM)

CC(C)C[C@H](N)C(=O)OCC1=C(C(=O)O)N2C(=O)C(NC(=O)/C(=N\OC(C)(C)C(=O)O)c3csc(N)n3)C2[S+]([O-])C1 (some centres unmarked) [41 859]
MIC [1]: 0.5 µg/mL (≈ 0.813 µM) | MIC [2]: 4 µg/mL (≈ 6.51 µM) | MIC [3]: 8 µg/mL (≈ 13 µM) | MIC [4]: 1 µg/mL (≈ 1.63 µM) | MIC [5]: 0.25 µg/mL (≈ 0.407 µM) | MIC [6]: 2 µg/mL (≈ 3.25 µM) | MIC [7]: 16 µg/mL (≈ 26 µM)

CCC(C)C(N)C(=O)OCC1=C(C(=O)O)N2C(=O)C(NC(=O)C(=NOC(C)(C)C(=O)O)c3csc(N)n3)C2[S+]([O-])C1 (centres unmarked) [41 860]
MIC [1]: 0.5 µg/mL (≈ 0.813 µM) | MIC [2]: 4 µg/mL (≈ 6.51 µM) | MIC [3]: 8 µg/mL (≈ 13 µM) | MIC [4]: 2 µg/mL (≈ 3.25 µM) | MIC [5]: 0.5 µg/mL (≈ 0.813 µM) | MIC [6]: 1 µg/mL (≈ 1.63 µM) | MIC [7]: 16 µg/mL (≈ 26 µM)

CC(O)C(N)C(=O)OCC1=C(C(=O)O)N2C(=O)C(NC(=O)C(=NOC(C)(C)C(=O)O)c3csc(N)n3)C2[S+]([O-])C1 (centres unmarked) [41 885]
MIC [1]: 0.5 µg/mL (≈ 0.83 µM) | MIC [2]: 4 µg/mL (≈ 6.64 µM) | MIC [3]: 8 µg/mL (≈ 13.3 µM) | MIC [4]: 1 µg/mL (≈ 1.66 µM) | MIC [5]: 0.5 µg/mL (≈ 0.83 µM) | MIC [6]: 4 µg/mL (≈ 6.64 µM) | MIC [7]: 8 µg/mL (≈ 13.3 µM)

CSCC[C@H](N)C(=O)OCC1=C(C(=O)O)N2C(=O)C(NC(=O)/C(=N\OC(C)(C)C(=O)O)c3csc(N)n3)C2[S+]([O-])C1 (some centres unmarked) [41 887]
MIC [1]: 0.5 µg/mL (≈ 0.79 µM) | MIC [2]: 4 µg/mL (≈ 6.32 µM) | MIC [3]: 8 µg/mL (≈ 12.6 µM) | MIC [4]: 2 µg/mL (≈ 3.16 µM) | MIC [5]: 0.25 µg/mL (≈ 0.395 µM) | MIC [6]: 4 µg/mL (≈ 6.32 µM) | MIC [7]: 8 µg/mL (≈ 12.6 µM)

CC(C)(O/N=C(\C(=O)NC1C(=O)N2C(C(=O)O)=C(COC(=O)[C@@H](N)CCCCN)C[S+]([O-])C12)c1csc(N)n1)C(=O)O (some centres unmarked) [41 888]
MIC [1]: 1 µg/mL (≈ 1.59 µM) | MIC [2]: 8 µg/mL (≈ 12.7 µM) | MIC [3]: 8 µg/mL (≈ 12.7 µM) | MIC [4]: 2 µg/mL (≈ 3.18 µM) | MIC [5]: 1 µg/mL (≈ 1.59 µM) | MIC [6]: 2 µg/mL (≈ 3.18 µM) | MIC [7]: 8 µg/mL (≈ 12.7 µM)

CC(C)(O/N=C(\C(=O)NC1C(=O)N2C(C(=O)O)=C(COC(=O)[C@@H](N)Cc3c[nH]cn3)C[S+]([O-])C12)c1csc(N)n1)C(=O)O (some centres unmarked) [41 889]
MIC [1]: 1 µg/mL (≈ 1.57 µM) | MIC [2]: 4 µg/mL (≈ 6.26 µM) | MIC [3]: 8 µg/mL (≈ 12.5 µM) | MIC [4]: 1 µg/mL (≈ 1.57 µM) | MIC [5]: 0.5 µg/mL (≈ 0.783 µM) | MIC [6]: 1 µg/mL (≈ 1.57 µM) | MIC [7]: 8 µg/mL (≈ 12.5 µM)

C[C@@H](N)C(=O)OCC1=C(C(=O)O)N2C(=O)C(NC(=O)/C(=N\OC(C)(C)C(=O)O)c3csc(N)n3)C2[S+]([O-])C1 (some centres unmarked) [41 891]
MIC [1]: 0.5 µg/mL (≈ 0.873 µM) | MIC [2]: 4 µg/mL (≈ 6.99 µM) | MIC [3]: 8 µg/mL (≈ 14 µM) | MIC [4]: 0.5 µg/mL (≈ 0.873 µM) | MIC [5]: 0.5 µg/mL (≈ 0.873 µM) | MIC [6]: 0.5 µg/mL (≈ 0.873 µM) | MIC [7]: 8 µg/mL (≈ 14 µM)

CC(C)(O/N=C(\C(=O)NC1C(=O)N2C(C(=O)O)=C(COC(=O)C3(N)CCCCC3)C[S+]([O-])C12)c1csc(N)n1)C(=O)O (centres unmarked) [41 976]
MIC [1]: 0.5 µg/mL (≈ 0.798 µM) | MIC [2]: 8 µg/mL (≈ 12.8 µM) | MIC [3]: 8 µg/mL (≈ 12.8 µM) | MIC [4]: 1 µg/mL (≈ 1.6 µM) | MIC [5]: 0.25 µg/mL (≈ 0.399 µM) | MIC [6]: 0.5 µg/mL (≈ 0.798 µM) | MIC [7]: 8 µg/mL (≈ 12.8 µM)

CC(CN)C(=O)OCC1=C(C(=O)O)N2C(=O)C(NC(=O)C(=NOC(C)(C)C(=O)O)c3csc(N)n3)C2[S+]([O-])C1 (centres unmarked) [42 025]
MIC [1]: 0.5 µg/mL (≈ 0.852 µM) | MIC [2]: 1 µg/mL (≈ 1.7 µM) | MIC [3]: 4 µg/mL (≈ 6.82 µM) | MIC [4]: 0.5 µg/mL (≈ 0.852 µM) | MIC [5]: 0.25 µg/mL (≈ 0.426 µM) | MIC [6]: 0.5 µg/mL (≈ 0.852 µM) | MIC [7]: 4 µg/mL (≈ 6.82 µM)

CC(C)(ON=C(C(=O)NC1C(=O)N2C(C(=O)O)=C(COC(=O)CC(N)c3ccccc3)C[S+]([O-])C12)c1csc(N)n1)C(=O)O (centres unmarked) [42 026]
MIC [1]: 0.25 µg/mL (≈ 0.385 µM) | MIC [2]: 1 µg/mL (≈ 1.54 µM) | MIC [3]: 4 µg/mL (≈ 6.17 µM) | MIC [4]: 0.5 µg/mL (≈ 0.771 µM) | MIC [5]: ≤ 0.12 µg/mL | MIC [6]: 0.25 µg/mL (≈ 0.385 µM) | MIC [7]: 8 µg/mL (≈ 12.3 µM)

CNCCCCC(=O)OCC1=C(C(=O)O)N2C(=O)C(NC(=O)/C(=N\OC(C)(C)C(=O)O)c3csc(N)n3)C2[S+]([O-])C1 (centres unmarked) [42 029]
MIC [1]: 0.25 µg/mL (≈ 0.407 µM) | MIC [2]: 0.5 µg/mL (≈ 0.813 µM) | MIC [3]: 2 µg/mL (≈ 3.25 µM) | MIC [4]: 0.25 µg/mL (≈ 0.407 µM) | MIC [5]: ≤ 0.12 µg/mL | MIC [6]: 0.25 µg/mL (≈ 0.407 µM) | MIC [7]: 8 µg/mL (≈ 13 µM)

CC(C)(CN)C(=O)OCC1=C(C(=O)O)N2C(=O)C(NC(=O)/C(=N\OC3(C(=O)O)CCC3)c3csc(N)n3)C2[S+]([O-])C1 (centres unmarked) [42 208]
MIC [1]: 0.5 µg/mL (≈ 0.816 µM) | MIC [2]: 1 µg/mL (≈ 1.63 µM) | MIC [3]: 0.25 µg/mL (≈ 0.408 µM) | MIC [4]: 0.5 µg/mL (≈ 0.816 µM) | MIC [5]: ≤ 0.12 µg/mL | MIC [6]: 0.5 µg/mL (≈ 0.816 µM) | MIC [7]: 4 µg/mL (≈ 6.53 µM)

CC(CCN)C(=O)OCC1=C(C(=O)O)N2C(=O)C(NC(=O)C(=NOC3(C(=O)O)CCC3)c3csc(N)n3)C2[S+]([O-])C1 (centres unmarked) [42 209]
MIC [1]: 0.25 µg/mL (≈ 0.408 µM) | MIC [2]: 0.5 µg/mL (≈ 0.816 µM) | MIC [3]: ≤ 0.12 µg/mL | MIC [4]: 0.25 µg/mL (≈ 0.408 µM) | MIC [5]: ≤ 0.12 µg/mL | MIC [6]: ≤ 0.12 µg/mL | MIC [7]: 4 µg/mL (≈ 6.53 µM)
